Source: patent publication US6630347B1, “Endothelial NOS transgenic animals and methods of use” (The General Hospital Corporation, priority 1996, dated 2003)
Structures can show the parent of a compound that is named as a salt. Marks after values point to notes of the source that are not given here. Each block holds one compound with its values, some of them ahead of it.

Experiments:
pial arterioles = experiment: Pial arteriole diameter during superfusion in closed cranial window; format: in vivo, mice
Excerpt: The mouse head was fixed in a stereotaxic frame and the skull exposed by a longitudinal skin incision. A stainless steel cranial window ring (8.0 mm in inner diameter, 2.0 mm in height) containing three ports was imbedded into a loop of bone wax over the skull. Dental acrylic was then applied. A craniotomy (2×1.5 mm) was made in the left parietal bone within the ring of the window. After dura was opened and the brain surface superfused with artificial cerebrospinal fluid (aCSF), a cover glass was placed to close the window. The volume under the window was approximately 0.1 ml. The composition of aCSF was as follows (in mMol/L): […] The aCSF was superfused by an infusion pump (0.4 ml/min) via a PE-100 tubing connected to a window port. Intracranial pressure was maintained at 5-8 mm Hg. The temperature of aCSF within the windows was maintained at 36.5-37.0° C. Pial vessels were visualized through a cranial window by an intravital microscope (Leitz, Germany) equipped with a video camera ([…], Hamamatsu Photonics, Hamamatsu, Japan). The diameter of a single pial arteriole (20-30 μm) was continuously measured by a video width analyzer ([…], Hamamatsu, Japan) and recorded using the MacLab data acquisition and analysis system. After baseline stabilization, nitro-L-arginine or nitro-D-arginine solution (1 mM) was superfused into the window and the diameter of pial arteriole measured continuously 40 min thereafter.

[1] = Blood pressure responses to L-NA (femoral artery catheterization); format: in vivo, mice
Experimental: Mice were kept at normal temperature (37° C.), anesthetized with urethane ([…], intraperitoneal injection) or halothane inhalation, and ventilated using an SAR-830 mouse ventilator (CWE Instruments). Depth of anesthesia was adjusted to keep the blood pressure of animals unresponsive to tail-pinch with forceps. End-tidal CO2 was monitored with a microcapnometer and kept constant by adjustment of respiratory parameters. The right femoral artery was cannulated using stretched PE-10 polyethylene tubing (Clay Adams) for mean arterial blood pressure recordings using an ETH-400 transducer and a MacLab data acquisition system (ADI Instruments). For awake measurements, the femoral artery catheter was placed under halothane anesthesia and the wound was covered with 1% xylocane ointment to diminish discomfort. Recordings were made within one hour of the procedure. Data are expressed as means with standard deviation. Statistical evaluation was performed by t-test.
Mean arterial blood pressure (MABP) of urethane-anesthetized wild-type (solid line in FIG. 5) and eNOS mutant mice (dotted line in FIG. 5) were measured by femoral artery catheterization and recorded for 30 minutes of baseline before L-NA administration (arrows in FIG. 5). At time 0, 12 mg/kg of L-NA was given intraperitoneally. […] The blood pressure of eNOS mutant mice dropped from a baseline of 98 mm Hg to 66 mm Hg (n=5). […]

NOS binding sites = experiment: [3H]L-NG-nitro-arginine autoradiographic binding assay in brain sections; set-up: species or system mouse; settings: for L-NA displaceable [3H]L-NA binding in the presence of D-NA: 10 μM D-NA; for L-NA displaceable [3H]L-NA binding in the presence of 7-NI: 100 μM 7-NI
Experimental: Mice and rats were sacrificed by decapitation under 2% halothane anesthesia (30% O2+70% N2O). The brains were rapidly removed, immediately frozen in powdered dry ice, and stored at −70° C. Twelve μm sagittal or coronal sections were cut in a cryostat-microtome at −18° C. (Leitz 1720, Leica, Deerfield, Ill., U.S.A.) and thaw-mounted onto gelatin-coated slides (1% gelatin and 0.1% KCr2O). Adjacent sections were stained with cresyl violet and hematoxylin eosin, and stored at −70° C.
The method for the autoradiographic visualization of NOS binding using [^3H]L-NG-Nitro-arginine ([^3H]L-NA) has been described previously. Rutherford et al., (1995). Prior to experiments, sections were brought to −20° C. and then to room temperature. Sections were preincubated for 15 min at room temperature in 50 mM Tris-HCl (pH 7.3) to remove the endogenous ligands and/or modulators, then incubated for 30 min at room temperature in 50 mM Tris-HCl buffer containing 10 μM CaCl2 and 25 nM N^G-nitro-L-[2,3,4,5-H]arginine hydrochloride ([^3H]L-NA, specific activity: 48-57 Ci/mmol, Amersham, Arlington Heights, Ill., U.S.A.). Unlabelled L-N^G-nitro-arginiine (L-NA, Sigma, St. Louis, Mo., U.S.A.), D-N^G-nitro-arginine (D-NA, RBI, Natick, Mass., U.S.A.) and 7-nitroindazole (7-NI, Cookson Chemicals Ltd., England) was added at concentrations of 10, 10, and 100 μM, respectively. The sections were then washed twice for 5 min in ice-cold buffer and rinsed for 10 sec in ice-cold distilled water to eliminate residual buffer. After drying with cold air, the slides were tightly apposed to ^3H-Hyperfilm (Amersham) together with tritiated polymer standards (Amersham) and exposed at −4° C. for 6 weeks.
Films were developed in Kodak D-19 and fixed in Kodak Rapid Fixer, according to the manufacturer's instructions. The optical density of the regions of interest was measured by a computer-assisted image analysis (System M4, Imaging Research, St. Catharines, Ontario, Canada). The relationship between optical density and radioactivity was examined with reference to the tritium standards (Amersham, [^3H]microscale) co-exposed with the tissue sections. […] The densities of NOS binding sites are expressed in fmol bound [^3H]L-NA/mg tissue using the [^3H]L-NA concentration of 25 nM.

aortic rings = experiment: Endothelium-dependent relaxation of aortic rings in response to acetylcholine; set-up: species or system mice
Excerpt: The rings were pre-contracted with 10^−7 M norepinephrine and exposed to increasing concentrations of acetylcholine (ACh) from 10^−8 M to 3×10^−5 M. 2-3 segments were collected from each mouse, and five mice were used from the wild-type and eNOS mutant groups. Mean data from each animal were used. Respective tracings are shown. Acetylcholine concentrations are expressed in logM.

[2] = Cerebral infarct size 24 hrs after middle cerebral artery (MCA) occlusion; format: in vivo, mice
Excerpt: Male and female wild-type (SV-129 and C57 Black/6, Taconic Farms, Germantown, N.Y.) and eNOS mutant mice weighing 20 to 26 g were housed under diurnal lighting conditions and allowed free access to food and water ad libitum.
Mice were anesthetized with 2% halothane for induction and maintained on 1% halothane in 70/30% nitrous oxide/oxygen by mask. The right femoral artery was cannulated with PE-10 polyethylene tubing for arterial blood pressure measurement (Gould, Oxnard, Calif.) and blood gas determination (Corning 178, Ciba Corning Diag., Medford, Mass.). Rectal temperature was maintained between 36.5-37.5° C. with a homeothermic blanket system (YSI, Yellow Springs, Ohio).
Focal cerebral ischemia was induced by occlusion of middle cerebral artery (MCA) using the intraluminal filament technique. […] Through a ventral midline incision, the right common and external arteries were isolated and ligated. A microvascular clip (Zen temporary clip, Ohwa Tsusho, Tokyo, Japan) was temporarily placed on the internal artery and the pterygopalatine artery. An 8-0 nylon monofilament (Ethicon, Somerville, N.J.) coated with silicone was introduced through a small incision in the common corotid artery and advanced 10 mm distal to the carotid bifurcation so as to occlude the MCA and posterior communicating artery. The wound was sutured and the animal returned to its cage and allowed free access to water and food.
Twenty-four hours later, animals were sacrificed with an overdoses of pentobarbital and the brains removed and sectioned coronally into five 2-mm slices in a mouse brain matrix. Slices were placed in 2% TTC solution, followed by 10% formalin overnight. […] The infarction area, outlined in white, was measured (Bioquant IV image analysis system) on the posterior surface of each section, and the infarction volume was calculated by summing the infarct volumes of sequential 2 mm thick sections. […]

[3] = eNOS mutant mice; 250 μg/ml in drinking water, daily dose about 750 μg; decrease from 102 mm Hg
Experimental: The effect of hypertension in vascular injury responses (both filament and cuff models) is measured by repeating the experiments after treating eNOS mutant mice with hydralazine to reduce their blood pressure to normotensive levels.

[4] = Physiological data (blood gases, MABP) before MCA occlusion and after ischemia; format: in vivo, mice
Experimental: The right femoral artery was cannulated with PE-10 polyethylene tubing for arterial blood pressure measurement (Gould, Oxnard, Calif.) and blood gas determination (Corning 178, Ciba Corning Diag., Medford, Mass.). Rectal temperature was maintained between 36.5-37.5° C. with a homeothermic blanket system (YSI, Yellow Springs, Ohio). […] The investigator was blinded to the treatment group in this protocol.

[5] = Babbedge et al. (1993); cited from earlier work
[6] = Amygdaloid complex, nNOS mutant
[7] = Cerebellum (molecular layer), SV-129
[8] = Cerebellum (molecular layer), nNOS mutant
[9] = Hippocampal CA3 subfield, SV-129
[10] = Hippocampal CA3 subfield, nNOS mutant

SMILES: CC(=O)OCC[N+](C)(C)C [acetylcholine]
pre-addition tone present after acetylcholine (aortic rings; wild-type aortic segments pre-contracted with 10^-7 M norepinephrine, acetylcholine 3×10^-5 M): 60.3±14.6%

SMILES: NNc1nncc2ccccc12 [hydralazine, hydralazine hydrochloride]
mean arterial pressure after hydralazine [3]: 72 mm Hg
change of infarct size ([2]; eNOS mutants made normotensive by hydralazine): did not change
infarct volume ([2]; protocol 1, eNOS mutant mice made normotensive by hydralazine 1 mg/kg ip 1 hr before and 5, 17 hrs after MCA occlusion, n=10): 48±7 % of hemisphere
MABP difference between groups after hydralazine administration ([4]; eNOS mutant mice given hydralazine vs wild-type mice): did not differ
MABP before ([4]; protocol 1, eNOS mutant, hydralazine, 10 min before MCA occlusion): 102 ± 6 mmHg
MABP after ([4]; protocol 1, eNOS mutant, hydralazine, 24 hrs after ischemia): 102 mmHg

SMILES: N=C(N)NCCC[C@H](N)C(=O)O [L-arginine]
effect on the blood pressure responses to L-NA ([1]; 200 mg/kg, intraperitoneal): prevented

Now from value to compound, other results behind:

L-NA displaceable [3H]L-NA binding in the presence of D-NA (NOS binding sites; Amygdaloid complex, SV-129): 64 ± 7.6 fmol/mg tissue
L-NA displaceable [3H]L-NA binding in the presence of D-NA (NOS binding sites; [6]): 3 ± 1.7*^,# fmol/mg tissue
L-NA displaceable [3H]L-NA binding in the presence of D-NA (NOS binding sites; [7]): 59 ± 6.7 fmol/mg tissue
L-NA displaceable [3H]L-NA binding in the presence of D-NA (NOS binding sites; [8]): 0 ± 3.6*^,# fmol/mg tissue
L-NA displaceable [3H]L-NA binding in the presence of D-NA (NOS binding sites; Dentate gyrus, SV-129): 43 ± 4.8 fmol/mg tissue
L-NA displaceable [3H]L-NA binding in the presence of D-NA (NOS binding sites; Dentate gyrus, nNOS mutant): 2 ± 1.9*^,# fmol/mg tissue
L-NA displaceable [3H]L-NA binding in the presence of D-NA (NOS binding sites; [9]): 66 ± 5.9 fmol/mg tissue
L-NA displaceable [3H]L-NA binding in the presence of D-NA (NOS binding sites; [10]): 3 ± 1.9*^,# fmol/mg tissue
L-NA displaceable [3H]L-NA binding in the presence of D-NA (NOS binding sites; Olfactory bulb (granular layer), SV-129): 92 ± 10.8 fmol/mg tissue
L-NA displaceable [3H]L-NA binding in the presence of D-NA (NOS binding sites; Olfactory bulb (granular layer), nNOS mutant): 5 ± 3.0*^,# fmol/mg tissue
SMILES: NC(=N[N+](=O)[O-])NCCCC(N)C(=O)O [D-NA, D-N^G-nitro-arginine]
change in pial diameter (pial arterioles; eNOS mutant mice, 1 mM superfusion): No change
blood pressure effects as seen with L-NA ([1]; wild-type and eNOS mutant mice, 12 mg/kg): not seen

density of [3H]L-NA binding sites in the presence of L-NA (NOS binding sites; 10 μM, all brain regions of all mouse strains): very low
SMILES: NC(=N[N+](=O)[O-])NCCCC(N)C(=O)O [L-NA, L-nitroarginine]
change of lesion size after MCA occlusion ([2]; protocol 2, wild-type mice): did not change
change in MABP during superfusion (pial arterioles; 1 mM superfusion): no change
pial vessel diameter (pial arterioles; eNOS mutant mice, 1 mM superfusion for 40 min): increased
acetylcholine-induced relaxation after L-NA treatment (aortic rings; wild-type vessel rings, 10^-4 M L-NA for 1 hour): abolished

[3H]L-NA binding in the presence of 7-NI (NOS binding sites; 100 μM, all regions measured, wild-type and eNOS mutant mice): significantly decreased
L-NA displaceable [3H]L-NA binding in the presence of 7-NI (NOS binding sites; Amygdaloid complex, C57black/6): 21 ± 4.8 fmol/mg tissue
L-NA displaceable [3H]L-NA binding in the presence of 7-NI (NOS binding sites; Amygdaloid complex, SV-129): 21 ± 2.1 fmol/mg tissue
L-NA displaceable [3H]L-NA binding in the presence of 7-NI (NOS binding sites; Amygdaloid complex, eNOS mutant): 21 ± 2.9 fmol/mg tissue
L-NA displaceable [3H]L-NA binding in the presence of 7-NI (NOS binding sites; [6]): 23 ± 2.5 fmol/mg tissue
L-NA displaceable [3H]L-NA binding in the presence of 7-NI (NOS binding sites; Cerebellum (molecular layer), C57black/6): 23 ± 5.4 fmol/mg tissue
L-NA displaceable [3H]L-NA binding in the presence of 7-NI (NOS binding sites; [7]): 18 ± 1.3 fmol/mg tissue
L-NA displaceable [3H]L-NA binding in the presence of 7-NI (NOS binding sites; Cerebellum (molecular layer), eNOS mutant): 20 ± 2.2 fmol/mg tissue
L-NA displaceable [3H]L-NA binding in the presence of 7-NI (NOS binding sites; [8]): 24 ± 1.0 fmol/mg tissue
L-NA displaceable [3H]L-NA binding in the presence of 7-NI (NOS binding sites; Dentate gyrus, C57black/6): 22 ± 4.6 fmol/mg tissue
L-NA displaceable [3H]L-NA binding in the presence of 7-NI (NOS binding sites; Dentate gyrus, SV-129): 18 ± 0.7 fmol/mg tissue
L-NA displaceable [3H]L-NA binding in the presence of 7-NI (NOS binding sites; Dentate gyrus, eNOS mutant): 20 ± 2.7 fmol/mg tissue
L-NA displaceable [3H]L-NA binding in the presence of 7-NI (NOS binding sites; Dentate gyrus, nNOS mutant): 22 ± 1.7 fmol/mg tissue
L-NA displaceable [3H]L-NA binding in the presence of 7-NI (NOS binding sites; Hippocampal CA3 subfield, C57black/6): 22 ± 4.7 fmol/mg tissue
L-NA displaceable [3H]L-NA binding in the presence of 7-NI (NOS binding sites; [9]): 18 ± 1.8 fmol/mg tissue
L-NA displaceable [3H]L-NA binding in the presence of 7-NI (NOS binding sites; Hippocampal CA3 subfield, eNOS mutant): 21 ± 1.8 fmol/mg tissue
L-NA displaceable [3H]L-NA binding in the presence of 7-NI (NOS binding sites; [10]): 23 ± 2.3 fmol/mg tissue
L-NA displaceable [3H]L-NA binding in the presence of 7-NI (NOS binding sites; Olfactory bulb (glanular layer), C57black/6): 28 ± 4.1 fmol/mg tissue
L-NA displaceable [3H]L-NA binding in the presence of 7-NI (NOS binding sites; Olfactory bulb (glanular layer), SV-129): 17 ± 0.7 fmol/mg tissue
L-NA displaceable [3H]L-NA binding in the presence of 7-NI (NOS binding sites; Olfactory bulb (glanular layer), nNOS mutant): 30 ± 2.7 fmol/mg tissue
SMILES: O=[N+]([O-])c1cccc2cn[nH]c12 [7-NI, 7-nitroindazole]
effect on blood pressure [5]: does not increase blood pressure
